Data set [1] deals with COS-7 cells. As to the kind of experiment: Cell imaging under fluorescent microscope, COS-7 normal cells. Format: cell-based, simian. The conditions noted are these: COS-7 stained alone, 200 nM, 1-20 min. As for the experimental part: Cell culture: HeLa cells were cultured in the MEM containing 10% FBS and 1% antibiotics (100 units/mL penicillin and 100 µg/mL streptomycin) in a 5% CO2 humidity incubator at 37° C. COS-7, MDA-MB-231, MCF-7, and MDCK-II cells were culture in the DMEM containing 10% FBS and antibiotics (100 units/mL penicillin and 100 µg/mL streptomycin) in a 5% CO2 humidity incubator at 37° C. Cell imaging: two different kind of cells were grown overnight on a 35 mm petri dish with a cover slip. The live cells were incubated with 200 nM of TPE-IQ-2O for 1, 5, 10, and 20 mins. […] Condition: 200 nM (Filter: both close; Channel 5; EX: 400-440 nm; Exposure time: bright field: 1000 ms Fluorescence: 1000 ms. Two different kinds of cells were grown overnight on a 35 mm petri dish with a cover slip. The live cells were incubated with 200 nM of TPE-IQ-2O for 20, 10, and 5 mins. The MCF-7 cells were stained by TPE-IQ-2O; the COS-7 cells were stained by TPE-IQ-2O; the MCF-7 cells and COS-7 cells were co-cultured and stained together by TPE-IQ-2O. Condition: 200 nM (Filter: both close; Channel 5; EX: 400-440 nm; Exposure time: bright field: 1000 ms Fluorescence: 1000 ms. Two different kinds of cells were grown overnight on a 35 mm petri dish with a cover slip. […] Condition: 200 nM (Filter: both close; Channel 5; EX: 400-440 nm; Exposure time: bright field: 1000 ms Fluorescence: 1000 ms.

Data set [2] relates to MDCK-II cells. As to the kind of experiment: Cell imaging under fluorescent microscope, MDCK-II normal cells. It is filed as cell-based, Canine. The conditions noted are these: MDCK-II stained alone, 200 nM, 10 mins. The protocol: Cell culture: HeLa cells were cultured in the MEM containing 10% FBS and 1% antibiotics (100 units/mL penicillin and 100 µg/mL streptomycin) in a 5% CO2 humidity incubator at 37° C. COS-7, MDA-MB-231, MCF-7, and MDCK-II cells were culture in the DMEM containing 10% FBS and antibiotics (100 units/mL penicillin and 100 µg/mL streptomycin) in a 5% CO2 humidity incubator at 37° C.
Cell imaging: two different kind of cells were grown overnight on a 35 mm petri dish with a cover slip. The live cells were incubated with 200 nM of TPE-IQ-2O for 1, 5, 10, and 20 mins. In a typical experiment, 2 μL of a 10 mM stock solution of TPE-IQ-2O in DMSO was diluted to 2 mL with cell culture medium, followed by further dilution to desired concentration. The cells were imaged under a fluorescent microscope (BX41 Microscope) using the same excitation and emission filters: excitation filter=400-440 nm, dichroic mirror=455 nm, and emission filter=465 nm long pass.
Two different kinds of cells were grown overnight on a 35 mm petri dish with a cover slip. The live cells were incubated with 200 nM of TPE-IQ-2O for 10 mins. […] Condition: 200 nM 10 mins (Filter: both close; Channel 5; EX: 400-440 nm; Exposure time: bright field: 1000 ms Fluorescence: 1000 ms.

Data set [3] has as its system PC-9 cells. As to the kind of experiment: Cell imaging, PC-9 cells. It is filed as cell-based, human. The conditions noted are these: PC-9, 200 nM, 20 and 10 mins. The protocol:
(§1) The PC-9, HepG2, and HCC827 cells were grown overnight on a 35 mm petri dish with a cover slip. The live cells were incubated with 200 nM of TPE-IQ-2O for 20 and 10 mins. In all the experiments, the cancer cells are fluorescent in solely staining.
(§2) HepG2 cells (human hepatocarcinoma cell line), PC-9 cells (human lung adenocarcinoma cell line), Hela cells (human cervical carcinoma cell line), and LX2 cells (normal cell, human hepatic stellate cell line) were stained with 200 nM DPA-IQ for 10 min. Images were taken under the same equipment settings. Scale bar: 30 μm. Excitation wavelength: 400-440 nm.

The test system of data set [4] is HepG2 cells. As to the kind of experiment: Cell imaging, HepG2 cells. The conditions noted are these: HepG2, 200 nM, 20 and 10 mins. It is filed as cell-based, human. The protocol: as §1, §2
Data set [5] concerns ROS. As to the kind of experiment: ROS generation under white light with H2DCF-DA indicator. The following applies: white light irradiation; dye 10 mM, H2DCF-DA 5 mM, ex 488 nm. The protocol: Fluorescence change of TPE-IQ-2O, H2DCF-DA (ROS indicator) and the mixture with different irradiation time of white light. […] Dye (TPE-IQ-2O): 10 mM; H2DCF-DA: 5 mM. Excitation wavelength: 488 nm.

For data set [6], the system named is HeLa cells. As to the kind of experiment: LDH cytotoxicity assay, HeLa cells. Format: cell-based, human. As for the experimental part:
(§3) The HeLa and COS-7 cells were seeded in 96-well plate for 24 hrs. Then a different concentration of TPE-IQ-2O was added into each well. After 30 mins TPE-IQ-2O treatment in the dark, the dye was removed. Half of the cells were treated with white light irradiation for 90 mins and the rest of cells were kept in the dark. After another 24 hrs of incubation, 10 μL of 10× lysis buffer bromide was added to untreated cells as Maximum LDH Activity, while 10 μL ultrapure water was added to other wells. After incubation at 37° C. 5% CO2 for 45 mins, 50 μL of each well sample medium was transferred to a new 96-well plate, followed by addition of 50 μL reaction mixture. 50 μL stop solution were added into each well after 30 mins incubation protected from light. Then the absorbance was achieved by plate reader.

In data set [7] the test system is COS-7 cells. As to the kind of experiment: LDH cytotoxicity assay, COS-7 cells. It is filed as cell-based, simian. The following applies: COS-7, with or without white light irradiation. The protocol:
as §3

As to `CCC[n+]1cc2ccc(C(=C(c3ccc(OC)cc3)c3ccc(OC)cc3)c3ccccc3)cc2c(-c2ccccc2)c1-c1ccccc1` [TPE-IQ-2O, 6-(2,2-bis(4-methoxyphenyl)-1-phenylvinyl)-3,4-diphenyl-2-propylisoquinolin-2-ium], the “Fluorescence of stained cells” value in data set [1] is “not stained”; in data set [2], “not stained”; in data set [3], “fluorescent”; in data set [4], “fluorescent”. Also, the “ROS generation (H2DCF-DA fluorescence)” value in data set [5] is “continuous ROS generation”. The LDH cytotoxicity result in data set [6] (white light irradiation for 90 mins) is recorded as “HeLa cells decreased as the concentration of TPE-IQ-2O increased”; in data set [6] (without white light irradiation) it was “no obvious cytotoxicity”; in data set [7], “no obvious cytotoxicity”.
